Data taken from patent US8288410B2, “3-substituted quinolinium and 7H-indolo[2,3-c]quinolinium salts as new antiinfectives” (Florida Agricultural and Mechanical University, priority 2008, dated 2012).

Key:
MRSA = test: Antibacterial susceptibility testing, MRSA; format: cell-based, methicillin resistant Staphylococcus aureus; conditions: for IC50 / MIC: Staphylococcus aureus; for IC50: Table 2, read-out: MRSA IC50; for MIC: Table 2, read-out: MRSA MIC
How it was run: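 Each plate carried growth (saline only), solvent and blank (media only) controls, and Ciprofloxacin was the drug control. Plates were read before and after final incubation. MIC, the lowest concentration showing no detectable growth, was judged visually, and IC50 was obtained by plotting percent growth against concentration.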

[1] = test system: Candida albicans ATTC 90028; test: Antifungal susceptibility testing, Candida albicans; format: cell-based; conditions: for IC50: ATTC90028, Table 2, read-out: Ca IC50; for MFC: ATTC90028, Table 2, read-out: Ca MFC; for MIC: ATTC90028, Table 2, read-out: Ca MIC
How it was run: (§1)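 Modified NCCLS broth microdilution, samples serially diluted from 20 μg/mL top concentration, inocula per 0.5 McFarland (C. albicans in SDB or RPMI 1640; C. neoformans in SDB; A. fumigatus in YM broth or RPMI-1640 + 5% Alamar Blue). IC50 from percent growth versus concentration; MIC read visually as lowest concentration without detectable growth.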

Vero Cells = test: Cytotoxicity, Vero cells; format: cell-based
[2] = test system: Aspergillus fumigatus ATCC 90906; test: Antifungal susceptibility testing, Aspergillus fumigatus; format: cell-based; conditions: for A fu IC50 / IC50: Aspergillus fumigatus; for IC50: ATCC90906, read-out: A fu IC50
How it was run: as §1

[3] = test system: Cryptococcus neoformans ATCC 90113; test: Antifungal susceptibility testing, Cryptococcus neoformans; format: cell-based; conditions: for IC50: ATCC90113, Table 2, read-out: Cn IC50; for MFC: ATCC90113, Table 2, read-out: Cn MFC; for MIC: ATCC90113, Table 2, read-out: Cn MIC
How it was run: as §1

| SMILES | A fu MFC [2] [µg/mL] | A fu MIC [2] [µg/mL] | MRSA IC50 (MRSA; Table 2) [µg/mL] | MRSA MFC (MRSA; Table 2) [µg/mL] | MRSA MIC (MRSA; Table 2) [µg/mL] | Ca IC50 ([1]; Table 2) [µg/mL] | Ca MFC ([1]; Table 2) [µg/mL] | Ca MIC ([1]; Table 2) [µg/mL] | TC50 Vero Cells (Vero Cells; Table 2) [µg/mL] | A fu IC50 ([2]; Table 2) [µg/mL] | Cn IC50 ([3]; Table 2) [µg/mL] | Cn MFC ([3]; Table 2) [µg/mL] | Cn MIC ([3]; Table 2) [µg/mL] | further results |
| --- | --- | --- | --- | --- | --- | --- | --- | --- | --- | --- | --- | --- | --- | --- |
| C[n+]1cc2c(c3ccc(C(F)(F)F)cc3n2CCCCCC2CCCCC2)c2ccccc21.[I-] [JRE-5-31-1] | 10 | 5.0 | – | – | – | – | – | – | – | – | – | – | – | MRSA IC50 (MRSA; Table 3): 0.70 µg/mL; MRSA MFC (MRSA; Table 3): 1.3 µg/mL; MRSA MIC (MRSA; Table 3): 1.3 µg/mL; Ca IC50 ([1]; Table 3): 0.80 µg/mL; Ca MFC ([1]; Table 3): — ((-) = >20 μg/mL); Ca MIC ([1]; Table 3): 1.3 µg/mL; TC50 Vero Cells (Vero Cells; Table 3): >10 µg/mL; A fu IC50 ([2]; Table 3): 1.5 µg/mL; Cn IC50 ([3]; Table 3): 0.85 µg/mL; Cn MFC ([3]; Table 3): 2.5 µg/mL; Cn MIC ([3]; Table 3): 1.3 µg/mL |
| C[n+]1cc(N(CCCCCC2CCCCC2)c2ccc(C(F)(F)F)cc2)cc2ccccc21.[I-] [JRE-3-20-1] | 6.3 | 3.1 | 0.40 | 1.6 | 0.78 | 0.65 | 3.1 | 1.6 | 25 | 1.0 | 0.65 | 3.1 | 1.6 | – |
| C[n+]1cccc(N(CCCCCC2CCCCC2)c2ccc3ccccc3c2)c1 [EVK-III-002] | 6.3 | 1.6 | – | – | – | – | – | – | 6.0 | – | – | – | – | IC50 (MRSA): 0.45 µg/mL; MIC (MRSA): 0.78 µg/mL; IC50 [1]: 0.6 µg/mL; MFC [1]: 13 µg/mL; MIC [1]: 1.6 µg/mL; IC50 ([2]; Table 2): 1 µg/mL; IC50 [3]: 0.85 µg/mL; MFC [3]: 1.6 µg/mL; MIC [3]: 1.6 µg/mL |
| COc1ccc(N(CCCCCC2CCCCC2)c2cc3ccccc3[n+](C)c2)cc1.[I-] [JRE-3-68-1] | 10 | 1.3 | 0.50 | 1.3 | 1.3 | 0.80 | 1.3 | 1.3 | >10 | 0.80 | 0.50 | 5.0 | 1.3 | – |
| Clc1cccc(Nc2cc3ccccc3[n+](CCCCCC3CCCCC3)c2)c1.[I-] [JRE-3-88-1] | – | 6.3 | 0.55 | 1.6 | 0.78 | 2.0 | 13 | 6.3 | 12.5 | 3.5 | 2.0 | 50 | 3.1 | – |
| C[n+]1cc2c(c3ccccc3n2CCCCCC2CCCCC2)c2ccccc21.[I-] [JRE-3-100-1] | 10 | 5.0 | – | – | – | – | – | – | – | – | – | – | – | MRSA IC50 (MRSA; Table 3): 0.70 µg/mL; MRSA MFC (MRSA; Table 3): 1.3 µg/mL; MRSA MIC (MRSA; Table 3): 1.3 µg/mL; Ca IC50 ([1]; Table 3): 0.80 µg/mL; Ca MFC ([1]; Table 3): 10 µg/mL; Ca MIC ([1]; Table 3): 2.5 µg/mL; TC50 Vero Cells (Vero Cells; Table 3): >10 µg/mL; A fu IC50 ([2]; Table 3): 3.5 µg/mL; Cn IC50 ([3]; Table 3): 1.5 µg/mL; Cn MFC ([3]; Table 3): 5.0 µg/mL; Cn MIC ([3]; Table 3): 2.5 µg/mL |
| C[n+]1cc(N(CCCCCC2CCCCC2)c2ccc3ccccc3c2)cc2ccccc21 [EVK-III-001] | 3.1 | 1.6 | – | – | – | – | – | – | 9.0 | – | – | – | – | IC50 (MRSA): 0.3 µg/mL; MIC (MRSA): 0.78 µg/mL; IC50 [1]: 0.2 µg/mL; MFC [1]: 3.1 µg/mL; MIC [1]: 0.39 µg/mL; IC50 ([2]; Table 2): 0.95 µg/mL; IC50 [3]: 0.35 µg/mL; MFC [3]: 1.6 µg/mL; MIC [3]: 0.78 µg/mL |
| COc1cccc(N(CCCCCC2CCCCC2)c2cc3ccccc3[n+](C)c2)c1.[I-] [JRE-3-69-1] | 10 | 1.3 | 0.50 | 1.3 | 1.3 | 0.85 | 2.5 | 2.5 | >10 | 0.70 | 0.55 | 5.0 | 1.3 | – |
